Patent US8361970B2, “Growth factor binding molecules” (University of South Florida, priority 2000, dated 2013)
Where “and” joins values, the source holds several entries; their conditions need not be identical. Identical values can stand only once. Like-named read-outs stand apart in the source and are kept apart here.

Assays:
[1] = tested on: VEGF-stimulated Flk-1 tyrosine phosphorylation; experiment: Inhibition of VEGF-stimulated Flk-1 tyrosine phosphorylation in Flk-1/3T3 cells; assay type: cell-based
Protocol: (§1) Starved NIII 3T3 cells (PDGF-BB and PDGF-AA), NIH 3T3 cells overexpressing either EGFR (EGF) or Flk-1 (VEGF) are pre-treated with the indicated concentrations of GFB-111 for 5 minutes before 10 minutes of stimulation with PDGF-BB (10 ng/ml), PDGF-AA (10 ng/ml), EGF (100 ng/ml) and VEGF (50 ng/ml). Cell lysates are run on SDS-PAGE gels, then transferred to nitrocellulose and Western blotted with anti-phosphotyrosine (4G 10) or anti-phosphorylated Erk1/Erk2 (New England Biolabs).
(§2) In order to identify molecules that would bind vascular endothelial growth factor (VEGF), Flk-1/3T3 cell-based assay is used that relies on VEGF-stimulation of its receptor, Flk-1, tyrosine phosphorylation and subsequent MAP-kinase activation. The assay used herein identical to that used for PDGF, except that NIH 3T3 cells that overexpress Flk-1 are used. GFB-116, which has four identical loops with the sequence GKGK (SEQ ID NO. 10) is shown to be very potent and selective toward blocking the ability of VEGF to stimulate Flk-1 tyrosine phosphorylation and subsequent MAP-kinase activation as measured by phospho erk-1 and erk-2 also referred to in the Table as p42 and p44 (Table 4A). A preferred embodiment of the invention is a compound that binds to a vascular endothelial growth factor, of the general structure III (above) in which R is n-butyl, n-propyl, or benzyl, and X comprise covalently attached identical cyclic peptide loops wherein R1, R2, R3, and R4 are each amino acid side chains, as broadly defined above, that define a tetrapeptide sequence, wherein said tetrapeptide is covalently attached at the amino and carboxy termini of said tetrapeptide to 3-aminomethyl-5-aminobenzamide linking group, and wherein said tetrapeptide sequence is GKGK (SEQ ID NO. 10), GDGY (SEQ ID NO. 6), or functionally related derivatives thereof.

[2] = tested on: VEGF-stimulated MAP kinase activation; experiment: Inhibition of VEGF-stimulated MAP kinase (p42/p44, Erk2/Erk1) activation in Flk-1/3T3 cells; assay type: cell-based; details: for IC50: Flk-1/3T3, VEGF stimulated
Protocol: as §1
(§3) In other experiments, starved NIH 3T3 cells (PDGF-AA, PDGF-BB, aFGF, bFGF), NIH 3T3 cells overexpressing EGFR. IGF-1R or Flk-1 and the human breast carcinoma SkBr3 that overexpresses ErbB2 (HRGβ) are pretreated with GFB-111 (100 μM) for 5 min before 10 min stimulation with the indicated growth factors at the concentrations shown above and aFGF (10 ng/ml), bFGF (50 ng/ml), IGF-1 (50 ng/ml) and HRGβ (10 ng/ml). Cell lysates are then immunoblotted with anti-phospho Erk1/Erk2 as described above.
as §2

[3] = tested on: aFGF-stimulated MAP kinase activation of p42 and p44; experiment: Inhibition of aFGF stimulation of p42/p44 MAP kinase in NIH 3T3 cells; assay type: cell-based
Protocol: as §3
The ability of growth factor binding agents in the library of growth factor binding agents to block an aFGF signal is measured by aFGF-stimulation of MAP kinase activation of p42 and p44 essentially as described above for VEGF. NIH 3T3 cells are used as the target cell. […] A preferred embodiment of the invention is a compound that binds to acidic fibroblast growth factor, of the general structure III, in which R is n-butyl, n-propyl, or benzyl, and X1, X2, X3, and X4 optionally comprise covalently attached cyclic peptide loops of the general structure II, wherein R1, R2, R3, and R4 are each amino acid side chains that define a tetrapeptide sequence, wherein said tetrapeptide is covalently attached at the amino and carboxy termini of said tetrapeptide to a 3-aminomethyl-5-aminobenzamide linking group, and wherein said tetrapeptide sequence is as given, for example, in Table 5.

[4] = tested on: IGF-1 stimulated MAP kinase activation; experiment: Inhibition of IGF-1 stimulated MAP kinase (p42/p44) activation in IGFR/3T3 cells; assay type: cell-based
Protocol: as §3
The ability of the GFB library to block the ability of IGF-1 to stimulate the IFG-1 R tyrosine phosphorylation and MAP kinase activation is evaluated using the cell assay described above with IGF-1R/3T3 cells as target cell. […] A preferred embodiment of the invention is a compound that binds to an insulin-like growth factor-1, of the general structure III, wherein R is n-butyl, n-propyl, or benzyl, and X1, X2, X3, and X4 optionally comprise identical cyclic peptide loops of the general structure II, and wherein R1, R2, R3, and R4 are each amino acid side chains that define a tetrapeptide sequence, wherein said tetrapeptide is covalently attached at the amino and carboxy termini of said tetrapeptide to a 3-aminomethyl-5-aminobenzamide linking group.

[5] = tested on: human lung adenocarcinoma A-549; experiment: Antitumor efficacy, A-549 xenograft in nude mice; assay type: in vivo; details: for Inhibition of A-549 tumor growth in nude mice: 50 mg per kg per day
[6] = tested on: angiogenesis in A-549 tumors; experiment: Angiogenesis: Factor VIII immunostaining and microvessel count in A-549 tumors; assay type: in vivo, nude mice; details: for Microvessel count (Mean ± SD) 250X / Microvessel count (Mean ± SD) 400X: A-549 tumor
Protocol: On the indicated termination day of each nude mouse experiment described above, (see also Table 2), the tumors are extracted and half frozen at −70° C., and half is fixed in 10% neutral buffered formalin for 6 hrs. After fixation the tissue samples are processed into paraffin blocks. Four micrometer-thick tissue sections are obtained from the paraffin blocks and stained with hematoxylin and eosin (H&E) (Richard-Allan Scientific, Kalamazoo, Mich.) using standard histologic techniques. Tissue sections are also subjected to immunostaining for Factor VIII using the avidin biotin peroxidase complex technique (Vectastatin Elite ABC Kit, Vector, Burlingame, Calif.). Rabbit polyclonal FVIII antibody (Von Willebrand Factor, Dako Corporation, Carpinteria, Calif.) is used at 1:400 dilution, following microwave antigen retrieval (4 cycles of 5 minutes each on high in 0.1M citrate buffer).

[7] = Flk-1/3T3, VEGF stimulated, read-out: (IC50) Inhibition Flk-1-Y-P
[8] = read-out: (IC50) Inhibition p42
[9] = read-out: (IC50) Inhibition p44
[10] = concentrations as high as 100 μM
[11] = 100 μM, IGFR/3T3, IGF-1 stimulated

Compound	IC50 [1, 7] [µM]	IC50 ([1]; read-out: IC50 VEGF-stimulated Flk-1 tyrosine phosphorylation and MAPK activation) [µM]	IC50 [2, 8] [µM]	IC50 [2, 9] [µM]	aFGF-activation of Erk1/Erk2 [3, 10]	% Inhibition at 100 μM p42 [4, 11] [%]	% Inhibition at 100 μM p44 [4, 11]	IGF-1-activation of Erk1/Erk2 [4, 10]	Inhibition of A-549 tumor growth in nude mice [5]	% Tumor growth inhibition ([5]; A-549, 50 mpk, day in parentheses in cell)	Microvessel count (Mean ± SD) 250X ([6]; 50 mpk, 50 mg/kg)	Microvessel count (Mean ± SD) 400X ([6]; 50 mpk, 50 mg/kg)	Inhibition of angiogenesis ([6]; A-549 tumors)	Block of VEGF-activation of the MAPKinases Erk1 and Erk2 ([2]; FIG. 13)	Block of aFGF-stimulation of MAP kinase activation of p42 and p44 ([3]; NIH 3T3)	Microvessel count (Mean ± SD) 250X ([6]; 50 mpk)	Microvessel count (Mean ± SD) 400X ([6]; 50 mpk)	Inhibition of angiogenesis by microvessel counting ([6]; A-549 tumors, 50 mpk) [%]
CCCCOc1c2cc(C(=O)Nc3cc4cc(c3)C(=O)NCC(=O)N[C@@H](CC(=O)O)C(=O)NCC(=O)N[C@@H](Cc3ccc(O)cc3)C(=O)NC4)cc1Cc1cc(C(=O)Nc3cc4cc(c3)C(=O)NCC(=O)N[C@@H](CC(=O)O)C(=O)NCC(=O)N[C@@H](Cc3ccc(O)cc3)C(=O)NC4)cc(c1OCCCC)Cc1cc(C(=O)Nc3cc4cc(c3)C(=O)NCC(=O)N[C@@H](CC(=O)O)C(=O)NCC(=O)N[C@@H](Cc3ccc(O)cc3)C(=O)NC4)cc(c1OCCCC)Cc1cc(C(=O)Nc3cc4cc(c3)C(=O)NCC(=O)N[C@@H](CC(=O)O)C(=O)NCC(=O)N[C@@H](Cc3ccc(O)cc3)C(=O)NC4)cc(c1OCCCC)C2 [GFB-111]	5	10	10	10	minimally affected	−18.4	10.7%	minimally affected	effective	62% (30) and 53% (31) and 64% (27)	3.63 ± 1.36 and 5.68 ± 1.74	2.34 ± 1.01 and 3.58 ± 1.01	strongly	–	–	–	–	–
GKGK [GFB-116]	0.3	–	5	5	–	–	25.2% and 43.5%	–	inhibits the growth	–	–	–	efficacious	block	very effective	5.56 ± 1.75	3.46 ± 1.19	70
